Experimental data: patent publication US11590117B2, “Treatment of a hematologic malignancy with 2-(4-chlorophenyl)-n-((2-(2,6-dioxopiperidin-3-yl)-1-oxoisoindolin-5-yl)methyl)-2,2-difluoroacetamide” (priority 2016, dated 2023)
“And” between values parts separate entries of the source, which are not always exact repeats. Identical values can stand only once. Like-named read-outs stand apart in the source and are kept apart here.

Legend:
CFU-E = test: Colony forming assay, bone marrow CD34+ cells in MethoCult; type: cell-based, human
Protocol: Experimental design: human bone marrow (BM) CD34+ cells were used to evaluate the potential for BM toxicity induced by Compound 1. In order to test the effects of Compound 1 on the functionality of hematopoietic progenitors, colony forming assays were done by seeding BM CD34+ cells on MethoCult medium. Cells were seeded directly in MethoCult with Compound 1 or cultured in liquid medium with Compound 1 for 2, 4, or 8 hours and then seeded in compound-free MethoCult to evaluate the effect of different exposure times. Early apoptosis induced by Compound 1 on HSC was analyzed by flow cytometry.
Results. Colony forming units (CFU) of common granulocyte/erythrocyte/monocyte/megakaryocyte (CFU-GEMM), CFU of granulocyte/monocyte (CFU-GM), burst forming unit of erythrocytes (BFU-E), and CFU of erythrocytes (CFU-E) in cultures exposed to Compound 1 or DMSO were scored on STEMvision.
Bone marrow CD34+ cells from normal donors were incubated with Compound 1 in MethoCult medium. Colony numbers for CFU-GM and BFU-E progenitors were counted using STEMVision automatic colony counting instrument and software and normalized to the colony number of the DMSO control. Results plotted as percentage of DMSO control vs concentration of Compound 1 were used to determine IC50 values. Data are shown as mean standard error of the mean of n=3 technical replicates. Donors were HD10, HD14, HD18, and HD19.

AML cell lines = test: IncuCyte Kinetic Caspase-3/7 Apoptosis Assay, panel of twenty AML cell lines; type: cell-based; settings: Homo sapiens
Description: Methods. Acute Myeloid Leukemia Cell Line Panel: Human AML cell lines, AML-193, F36-P, GDM-1, HL-60, HNT-34, Kasumi-1, Kasumi-3, KG-1, KG-1a, ML-2, MOLM-13, MUTZ-8, MV-4-11, NOMO-1, OCI-AML2, OCI-AML3, SIG-M5, TF-1, THP-1, and UT-7 were obtained from American Type Culture Collection (ATCC; Manassas, Va.) and Deutsche Sammlung von Mikroorganismen und Zellkulturen (DSMZ) (Germany) cell banks. The AML panel includes cell line(s) from each FAB classification (M0-M7) (Table 7).
Cell Culture Conditions: Cell lines were maintained in growth media containing 20% fetal bovine serum (FBS) (Hyclone Cat no. SH30910.03, Lot no. AZF188864; Corning REFno. 35-010-CV, Lot no. 35010124) supplemented with or without 10 ng/mL human recombinant granulocyte-macrophage colony stimulating factor (Sigma-Aldrich Cat no. SRP3050) (Table 8). Medium was purchased from ATCC (Cat no. 30-2001, 30-2002, 30-2003, 30-2005) and Gibco (REF no. 12561-056). Human recombinant granulocyte macrophage colony stimulating factor (GM-CSF) was expressed in Escherichia coli. The cell doubling times for each cell line were provided by ATCC and DSMZ. Cells were maintained in humidified incubators at 5% carbon dioxide (CO2). All cell lines were acclimated to Eagle's minimal essential medium (EMEM)+20% FBS with or without GM-CSF over 2 to 4 weeks prior to live cell imaging using IncuCyte Zoom (Essen Biosciences). The use of EMEM was necessary to eliminate background fluorescence caused by riboflavin in most media.
Incubation of Cell Cultures with Compound 1: Compound 1 was provided for studies by Celgene chemistry group at a stock concentration of 30 mM in 20 μL dimethyl sulfoxide (DMSO) frozen. Costar 96-well cell culture plates (Corning Cat no. 3595) were coated with 100 μL of 10 µg/mL fibronectin (Sigma-Aldrich Cat no. F1141) for 4 hours at 37° C. and immediately used or refrigerated overnight for later use. Cells (3000 to 6000 cells) were plated in growth medi in fibronectin-coated 96-well plates and incubated for a minimum of a few hours to overnight. Cells were incubated with a 12-point concentration response in triplicate with Compound 1 ([…]) including DMSO and Media controls. A 3-fold serial dilution of Compound 1 starting from a concentration of 200 μM in 0.6% DMSO (diluted in Media) was performed. For most sensitive cell lines, a 3-fold serial dilution of Compound 1 starting from a concentration of 20 μM in 0.6% DMSO (diluted in media) was performed. A volume of 5 μL or 10 μL for each dilution was added to 100 μL or 200 μL cells, respectively (0.3% DMSO final) and incubated for live cell imaging.
Live Cell Imaging on IncuCyte Zoom: Following incubation of cells with Compound 1, diluted Caspase 3/7 reagent (Essen Biosciences Cat no. 4440) is added to each well. The Caspase-3/7 reagent couples the activated caspase-3/7 recognition motif (DEVD) to NucView™488, a DNA intercalating dye. The cleavage of substrate by activated caspase-3/7 results in the release of the DNA dye and green fluorescent staining of nuclear DNA. This allows imaging of cells undergoing caspase-3/7 mediated apoptosis over time. Caspase-3/7 activation was quantified using the IncuCyte™ ZOOM basic analyzer. Red-labeled cell lines were also imaged over time using the IncuCyte™ ZOOM basic analyzer, for determination of both cell doubling time and Compound 1 effect on cell viability. Experiments were performed at least two times in each cell line.
Next, a 4 parameter log-logistic model was used to determine relative EC50 at each time point by the ‘drm’ function from the R ‘drc’ package (Ritz C, Streibig J C. Bioassay Analysis using R. J. Statist. Software 2005; 12(5):1-22). Goodness of fit was measured by R squared (coefficient of determination or the amount of variation explained by the model fit) of ≥80%, and EC50 parameter was assessed by having a ratio of standard error to the parameter of ≤40%, and the presence of at least one concentration point above and below the reported EC50. […]

**Q.** What does the source list for `O=C1CCC(N2Cc3cc(CNC(=O)C(F)(F)c4ccc(Cl)cc4)ccc3C2=O)C(=O)N1` (stereo not drawn) [Compound 1, 2-(4-chlorophenyl)-N-((2-(2,6-dioxopiperidin-3-yl)-1-oxoisoindolin-5-yl)methyl)-2,2-difluoroacetamide]?
**A.** Colony Number CFU-E (CFU-E; Donor HD10, 7.4 nM Compound 1, replicate counts): 2; Colony Number CFU-E (CFU-E; Donor HD10, 22.2 nM Compound 1, replicate counts): 0; Colony Number CFU-E (CFU-E; Donor HD10, 67 nM Compound 1, replicate counts): 0; Colony Number CFU-E (CFU-E; Donor HD10, 200 nM Compound 1, replicate counts): 1 and 3; Colony Number CFU-E (CFU-E; Donor HD10, 600 nM Compound 1, replicate counts): 0; Colony Number CFU-E (CFU-E; Donor HD14, 7.4 nM Compound 1, replicate counts): 6 and 0; Colony Number CFU-E (CFU-E; Donor HD14, 22.2 nM Compound 1, replicate counts): 7 and 0; Colony Number CFU-E (CFU-E; Donor HD14, 67 nM Compound 1, replicate counts): 4; Colony Number CFU-E (CFU-E; Donor HD14, 200 nM Compound 1, replicate counts): 1 and 2; Colony Number CFU-E (CFU-E; Donor HD14, 600 nM Compound 1, replicate counts): 2 and 0; Colony Number CFU-E (CFU-E; Donor HD18, 7.4 nM Compound 1, replicate counts): 0 and 2; Colony Number CFU-E (CFU-E; Donor HD18, 22.2 nM Compound 1, replicate counts): 7 and 1; Colony Number CFU-E (CFU-E; Donor HD18, 67 nM Compound 1, replicate counts): 3 and 0; Colony Number CFU-E (CFU-E; Donor HD18, 200 nM Compound 1, replicate counts): 3 and 2; Colony Number CFU-E (CFU-E; Donor HD18, 600 nM Compound 1, replicate counts): 1; Colony Number CFU-E (CFU-E; Donor HD19, 7.4 nM Compound 1, replicate counts): 9 and 4; Colony Number CFU-E (CFU-E; Donor HD19, 22.2 nM Compound 1, replicate counts): 4 and 5; Colony Number CFU-E (CFU-E; Donor HD19, 67 nM Compound 1, replicate counts): 6 and 3; Colony Number CFU-E (CFU-E; Donor HD19, 200 nM Compound 1, replicate counts): 3 and 1; Colony Number CFU-E (CFU-E; Donor HD19, 600 nM Compound 1, replicate counts): 1; EC50 (AML cell lines; 12 h, 8 most sensitive cell lines (5 lines with curve fits), 12 hours, read-out: apoptosis EC50 12hr (range)): 0.053 to 0.227 µM; EC50 (AML cell lines; 24 h, 14 of 20 cell lines with successful curve fits, 24 hours, read-out: apoptosis EC50 24hr (range)): 0.007 to 0.916 µM; EC50 (AML cell lines; 48 h, eight highly sensitive cell lines (HNT-34, Kasumi-3, HL-60, ML-2, MV4-11, KG-1, MUTZ-8, GDM-1), 48 hours, read-out: apoptosis EC50 48hr (range)): 0.004 to 0.049 µM; EC50 (AML cell lines; 48 h, eight highly sensitive cell lines, 48 hours, read-out: apoptosis average EC50 48hr): 0.027 µM; EC50 (AML cell lines; 48 h, four least sensitive cell lines (UT-7, F36-P, MOLM-13, OCI-AML3), 48 hours, read-out: apoptosis EC50 48hr (range)): 0.231 to 0.896 µM; EC50 (AML cell lines; 48 h, four least sensitive cell lines (UT-7, F36-P, MOLM-13, OCI-AML3), 48 hours, read-out: apoptosis average EC50 48hr): 0.458 µM; EC50 (AML cell lines; 48 h, seven moderately sensitive cell lines (OCI-AML-2, AML-193, SIG-M5, Kasumi-1, TF-1, Nomo-1, KG-1a), 48 hours, read-out: apoptosis EC50 48hr (range)): 0.081 to 0.145 µM; EC50 (AML cell lines; 48 h, seven moderately sensitive cell lines, 48 hours, read-out: apoptosis average EC50 48hr): 0.114 µM; EC50 (AML cell lines; 72 h, AML cell panel, 72 hours, read-out: apoptosis EC50 72hr (range)): 0.003 to 0.971 µM; EC50 (AML cell lines; 96 h, AML cell panel, 96 hours, read-out: apoptosis EC50 96hr (range)): 0.001 to 0.418 µM
